Assay type in all cases: cell-based
Experiment [1] concerns the target Ionotropic glutamate receptor NMDA 1/2C (Homo sapiens) (UniProt Q05586+Q14957). Nature of the experiment: Agonist activity at GluN1/GluN2C (unknown origin) expressed in xenopus laevis oocytes by measuring maximum response by two-electrode voltage-clamp method relative to glycine. Background: Two-electrode voltage clamp holds a large cell at a set potential and records current.

Experiment [2] concerns the target T1, Glutamate NMDA receptor; Grin1/Grin2a (Rattus norvegicus) (UniProt P35439+Q00959). Nature of the experiment: Partial agonist activity at recombinant rat GluN1/GluN2A NMDA receptor expressed in xenopus laevis oocytes by measuring maximum response by two-electrode voltage-clamp method relative to glycine. The note with it: filed as partial agonist.
Experiment [3] deals with T2, Ionotropic glutamate receptor NMDA 1/2D (Rattus norvegicus) (UniProt P35439+Q62645). The experiment in a line: Partial agonist activity at recombinant rat GluN1/GluN2D NMDA receptor expressed in xenopus laevis oocytes by measuring maximum response by two-electrode voltage-clamp method relative to glycine. The note with it: filed as partial agonist.
Experiment [4] addresses T3, Glutamate NMDA receptor; Grin1/Grin2c (Rattus norvegicus) (UniProt P35439+Q00961). Nature of the experiment: Agonist activity at recombinant rat GluN1/GluN2C NMDA receptor expressed in xenopus laevis oocytes by measuring maximum response by two-electrode voltage-clamp method relative to glycine. To be noted: filed as agonist.
Experiment [5] has as its target T4, Glutamate NMDA receptor; Grin1/Grin2b (Rattus norvegicus) (UniProt P35439+Q00960). The experiment in a line: Agonist activity at recombinant rat GluN1/GluN2B NMDA receptor expressed in xenopus laevis oocytes by measuring maximum response by two-electrode voltage-clamp method relative to glycine. To be noted: filed as agonist.
Experiment [6] addresses T5, Glutamate NMDA receptor; Grin1/Grin2a (Rattus norvegicus, UniProt P35439+Q00959). The experiment in a line: Inhibition of recombinant rat GluN1/GluN2A NMDA receptor expressed in xenopus laevis oocytes in presence of glycine and L-glutamate by two-electrode voltage-clamp method.
For experiment [7], the target named is T5, Glutamate NMDA receptor; Grin1/Grin2a. Nature of the experiment: Partial agonist activity at recombinant rat GluN1/GluN2A NMDA receptor expressed in xenopus laevis oocytes in presence of L-glutamate by two-electrode voltage-clamp method.
For experiment [8], the target named is T3, Glutamate NMDA receptor; Grin1/Grin2c (Rattus norvegicus). The experiment in a line: Inhibition of recombinant rat GluN1/GluN2C NMDA receptor expressed in xenopus laevis oocytes in presence of glycine and L-glutamate by measuring maximum response by two-electrode voltage-clamp method relative to control.
Experiment [9] deals with T6, Ionotropic glutamate receptor NMDA 1/2D (Rattus norvegicus, UniProt P35439+Q62645). Nature of the experiment: Partial agonist activity at recombinant rat GluN1/GluN2D NMDA receptor expressed in xenopus laevis oocytes in presence of L-glutamate by two-electrode voltage-clamp method.
For experiment [10], the target named is T4, Glutamate NMDA receptor; Grin1/Grin2b (Rattus norvegicus). The experiment in a line: Inhibition of recombinant rat GluN1/GluN2B NMDA receptor expressed in xenopus laevis oocytes in presence of glycine and L-glutamate by measuring maximum response by two-electrode voltage-clamp method relative to control.
The target is the same in experiment [11]. The experiment in a line: Agonist activity at recombinant rat GluN1/GluN2B NMDA receptor expressed in xenopus laevis oocytes at 30 uM by two-electrode voltage-clamp method relative to control.
Experiment [12] has as its target Glutamate NMDA receptor; Grin1/Grin2b (Rattus norvegicus, UniProt P35439+Q00960). The experiment in a line: Inhibition of recombinant rat GluN1/GluN2B NMDA receptor expressed in xenopus laevis oocytes in presence of glycine and L-glutamate by two-electrode voltage-clamp method.
For experiment [13], the target named is T2, Ionotropic glutamate receptor NMDA 1/2D (Rattus norvegicus). Nature of the experiment: Inhibition of recombinant rat GluN1/GluN2D NMDA receptor expressed in xenopus laevis oocytes at 30 uM in presence of glycine and L-glutamate by measuring maximum response by two-electrode voltage-clamp method relative to control.
For experiment [14], the target named is T7, Glutamate NMDA receptor; Grin1/Grin2c (Rattus norvegicus, UniProt P35439+Q00961). Nature of the experiment: Agonist activity at recombinant rat GluN1/GluN2C NMDA receptor expressed in xenopus laevis oocytes in presence of L-glutamate by two-electrode voltage-clamp method.
Experiment [15] concerns the target T7, Glutamate NMDA receptor; Grin1/Grin2c. Nature of the experiment: Inhibition of recombinant rat GluN1/GluN2C NMDA receptor expressed in xenopus laevis oocytes in presence of glycine and L-glutamate by two-electrode voltage-clamp method.
The target in experiment [16] is T1, Glutamate NMDA receptor; Grin1/Grin2a (Rattus norvegicus). Nature of the experiment: Inhibition of recombinant rat GluN1/GluN2A NMDA receptor expressed in xenopus laevis oocytes in presence of glycine and L-glutamate by measuring maximum response by two-electrode voltage-clamp method relative to control.
Experiment [17] deals with T6, Ionotropic glutamate receptor NMDA 1/2D. Nature of the experiment: Inhibition of recombinant rat GluN1/GluN2D NMDA receptor expressed in xenopus laevis oocytes in presence of glycine and L-glutamate by two-electrode voltage-clamp method.

Consider 4 molecules from ChEMBL document CHEMBL6121048 (J Med Chem, 2025).

As to `N[C@H](CNC(=O)c1cc2c(Cl)ccc(Cl)c2[nH]1)C(=O)O`, the Rmax in experiment [1] came out at 38%.
For the molecule `NCC(=O)O`, the Rmax in experiment [2], in [3], in experiment [4] and in [5] was 100% each time.
Consider `N[C@H](CNC(=O)c1ccc(-c2ccccc2)s1)C(=O)O`, for which the IC50 (in general, the point on the concentration scale where inhibition reaches its midpoint) in experiment [6] was 1900 nM; in experiment [12], 2100 nM; in experiment [15] it was 3900 nM. The figures for the EC50 in experiment [7], in [9] and in experiment [14] were 2280 nM, 3270 nM and 640 nM, respectively. The Rmax turned out to be 395% in experiment [8]; 69% in experiment [2]; 3% in experiment [10]; 43% in [3]; 20% in experiment [13]; 326% in experiment [4]. Moreover, the Rmax in [16] was 137%. Besides, the Activity in experiment [11] is less than 5%.
As to `CCc1ccccc1-c1ccc(C(=O)NC[C@@H](N)C(=O)O)o1`, the IC50 in experiment [6] is 540 nM; in experiment [17], 1300 nM; in experiment [12], 150 nM; in [15], 1100 nM. Further, the Rmax in experiment [8] turned out to be 65%; in experiment [10], 2%; in experiment [13], 7%; in experiment [16] it was 77%.
